Measurements: patent publication US9615577B2, “Herbicidally active cyclic dione compounds, or derivatives therefor, substituted by a phenyl which has an alkynyl-containing substituent” (Syngenta Limited, priority 2012, dated 2017)

Columns and labels:
Type in all cases: in vivo
Setaria faberi (SETFA) [1] = assay: Test 1A glasshouse assay for herbicidal activity, pre-emergence; details: 312 h, 250 g/ha, evaluated after 13 days, read-out: percentage phytotoxicity SETFA
In short: (§1)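 Glasshouse spray test with visual phytotoxicity scoring (0–100%) after 13 days. Application timing: 1 day after sowing or after 8 days' cultivation, in 0.5% Tween 20 acetone/water.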

[2] = system: Echinochloa crus-galli (ECHCG); assay: as above; details: 312 h, 250 g/ha, evaluated after 13 days, read-out: percentage phytotoxicity ECHCG
In short: as §1

[3] = system: Amaranthus retroflexus (AMARE); assay: as above; details: 312 h, 250 g/ha, evaluated after 13 days, read-out: percentage phytotoxicity AMARE
In short: as §1

[4] = system: Ipomoea hederacea (IPOHE); assay: as above; details: 312 h, evaluated after 13 days, read-out: percentage phytotoxicity IPOHE
In short: as §1

Solanum nigrum (SOLNI) [5] = assay: as above; details: 312 h, evaluated after 13 days, read-out: percentage phytotoxicity SOLNI
In short: as §1

[6] = system: Alopecurus myosuroides (ALOMY); assay: as above; details: 312 h, 250 g/ha, evaluated after 13 days, read-out: percentage phytotoxicity ALOMY
In short: as §1

Setaria faberi (SETFA) [7] = assay: Test 1A glasshouse assay for herbicidal activity, post-emergence; details: 312 h, 250 g/ha, evaluated after 13 days, read-out: percentage phytotoxicity SETFA
In short: as §1

[8] = system: Echinochloa crus-galli (ECHCG); assay: as above; details: 312 h, 250 g/ha, evaluated after 13 days, read-out: percentage phytotoxicity ECHCG
In short: as §1

[9] = system: Amaranthus retroflexus (AMARE); assay: as above; details: 312 h, 250 g/ha, evaluated after 13 days, read-out: percentage phytotoxicity AMARE
In short: as §1

[10] = system: Ipomoea hederacea (IPOHE); assay: as above; details: 312 h, 250 g/ha, evaluated after 13 days, read-out: percentage phytotoxicity IPOHE
In short: as §1

Solanum nigrum (SOLNI) [11] = assay: as above; details: 312 h, 250 g/ha, evaluated after 13 days, read-out: percentage phytotoxicity SOLNI
In short: as §1

[12] = system: Alopecurus myosuroides (ALOMY); assay: as above; details: 312 h, 250 g/ha, evaluated after 13 days, read-out: percentage phytotoxicity ALOMY
In short: as §1

Setaria faberi (SETFA) [13] = assay: Biological Example 2 comparative herbicidal data, post-emergence glasshouse screen; details: 312 h, read-out: Post-emergence herbicidal activities (percentage phytotoxicity) SETFA
In short: (§2)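 Plants grown 8 days in a glasshouse (24/16°C day/night, 14 h light, 65% humidity) were sprayed with compound in acetone/water (50:50) containing 0.5% Tween 20. They were kept under the same conditions and watered twice daily. Phytotoxicity was scored visually after 13 days (0 = no damage, 100 = total damage).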

[14] = system: Echinochloa crus-galli (ECHCG); assay: as above; details: 312 h, read-out: Post-emergence herbicidal activities (percentage phytotoxicity) ECHCG
In short: as §2

[15] = system: Alopecurus myosuroides (ALOMY); assay: as above; details: 312 h, read-out: Post-emergence herbicidal activities (percentage phytotoxicity) ALOMY
In short: as §2

`CC#Cc1cc(Cl)c(C2C(=O)C3CCC(C3)C2=O)c(CC)c1` (stereo not drawn) [Compound A-4] gave a pest or weed control at 250 g/ha (Setaria faberi (SETFA) [1]) of 70%, a pest or weed control at 250 g/ha [2] of 100% and a pest or weed control at 250 g/ha [3] of 0%. For the same compound, the pest or weed control at 250 g/ha [4] was 0%, the pest or weed control at 250 g/ha (Solanum nigrum (SOLNI) [5]) was 0% and the pest or weed control at 250 g/ha [6] was 100%. The pest or weed control at 250 g/ha (Setaria faberi (SETFA) [7]) was 80%, the pest or weed control at 250 g/ha [8] was 100% and the pest or weed control at 250 g/ha [9] was 0%. For the same compound, the pest or weed control at 250 g/ha [10] was 0%, the pest or weed control at 250 g/ha (Solanum nigrum (SOLNI) [11]) was 0% and the pest or weed control at 250 g/ha [12] was 90%.
In the case of `Cc1cc(C#CCl)ccc1C1C(=O)C(C)(C)OC(C)(C)C1=O` [Compound A-7], the pest or weed control at 250 g/ha (Setaria faberi (SETFA) [1]) is reported as 30%, the pest or weed control at 250 g/ha [2] is reported as 80% and the pest or weed control at 250 g/ha [3] is reported as 60%. The pest or weed control at 250 g/ha [4] was 20%, the pest or weed control at 250 g/ha (Solanum nigrum (SOLNI) [5]) was 40% and the pest or weed control at 250 g/ha [6] was 80%. It also gave a pest or weed control at 250 g/ha (Setaria faberi (SETFA) [7]) of 80%, a pest or weed control at 250 g/ha [8] of 80% and a pest or weed control at 250 g/ha [9] of 0%. The pest or weed control at 250 g/ha [10] was 20%, the pest or weed control at 250 g/ha (Solanum nigrum (SOLNI) [11]) was 50% and the pest or weed control at 250 g/ha [12] was 80%. The pest or weed control at 15.625 g/ha (Setaria faberi (SETFA) [13]; 15.625 g/ha application rate) was 40%, the pest or weed control at 62.5 g/ha (Setaria faberi (SETFA) [13]; 62.5 g/ha application rate) was 60% and the pest or weed control at 15.625 g/ha ([14]; 15.625 g/ha application rate) was 0%. For the same compound, the pest or weed control at 62.5 g/ha ([14]; 62.5 g/ha application rate) was 60%, the pest or weed control at 15.625 g/ha ([15]; 15.625 g/ha application rate) was 30% and the pest or weed control at 62.5 g/ha ([15]; 62.5 g/ha application rate) was 50%.
`CC#Cc1cc(C)c(C2C(=O)C3CCC(C3)C2=O)c(CCC)c1` (stereo not drawn) [Compound A-3] was tested, and the pest or weed control at 250 g/ha (Setaria faberi (SETFA) [1]) was 100%, the pest or weed control at 250 g/ha [2] was 100% and the pest or weed control at 250 g/ha [3] was 0%. For the same compound, the pest or weed control at 250 g/ha [4] was 40%, the pest or weed control at 250 g/ha (Solanum nigrum (SOLNI) [5]) was 0% and the pest or weed control at 250 g/ha [6] was 100%. It also gave a pest or weed control at 250 g/ha (Setaria faberi (SETFA) [7]) of 90%, a pest or weed control at 250 g/ha [8] of 100% and a pest or weed control at 250 g/ha [9] of 10%. The pest or weed control at 250 g/ha [10] was 0%, the pest or weed control at 250 g/ha (Solanum nigrum (SOLNI) [11]) was 20% and the pest or weed control at 250 g/ha [12] was 90%.
